Results on 25 molecules are retold here after ChEMBL document CHEMBL2384949, “Nitroimidazolyl hydrazones are better amoebicides than their cyclized 1,3,4-oxadiazoline analogues: In vitro studies and Lipophilic efficiency analysis” (Eur J Med Chem, 2013).

The structures appear in SMILES notation. Where only a bound is given, the exact number is not on record here.

For one series, the system named is Entamoeba histolytica. Briefly: Antiamoebic activity against Entamoeba histolytica HM-1:IMSS trophozoites after 72 hrs by microdilution method. Type of series: functional, organism-based. (In general: Dilution methods test growth across graded concentrations, often in twofold steps.)
Series [1] deals with HepG2. In words: Cytotoxicity against human HepG2 cells assessed as cell viability at 50 to 100 uM after 48 hrs by MTT assay. Type of series: cell-based. To be noted: hepg2, 48 h.
Series [2] relates to HepG2. Briefly: Cytotoxicity against human HepG2 cells after 48 hrs by MTT assay. Type of series: cell-based. To be noted: for IC50: Homo sapiens, HepG2, 48 h; for Activity: human, hepg2, 48 h. Background: Tetrazolium assays rely on reduction of a dye to a coloured formazan, in cell work by metabolically active cells.
Series [3] in a line: Safety index, ratio of IC50 for human HepG2 cells to IC50 for Entamoeba histolytica HM-1:IMSS trophozoites.
Series [4] is described as follows: Cytotoxicity against human HepG2 cells assessed as cell viability at 100 uM after 48 hrs by MTT assay. It is filed as cell-based. To be noted: read-out: Activity.
Series [5] is described as follows: Cytotoxicity against human HepG2 cells assessed as cell viability at 3.13 uM after 48 hrs by MTT assay. To be noted: read-out: Activity. It is filed as cell-based.
Series [6] can be described thus: Cytotoxicity against human HepG2 cells assessed as cell viability up to 25 uM after 48 hrs by MTT assay. Type of series: cell-based. To be noted: read-out: Activity.

For `CCc1ccc(C2OC(Cn3c([N+](=O)[O-])cnc3C)=NN2C(C)=O)cc1` (stereo not drawn), the IC50 with Entamoeba histolytica (read-out: IC50) and with Entamoeba histolytica (read-out: pIC50 (converted)) was 2.62 µM in each case.
With `Cc1ncc([N+](=O)[O-])n1CC(=O)N/N=C/c1ccc(Cl)cc1`, the IC50 was 3.64 µM with Entamoeba histolytica (read-out: IC50) and 3.65 µM in the series on Entamoeba histolytica (read-out: pIC50 (converted)).
Take `CC(=O)N1N=C(Cn2c([N+](=O)[O-])cnc2C)OC1c1cc(C)ccc1C` (stereo not drawn): the figures for the IC50 with Entamoeba histolytica (read-out: IC50) and in the series on Entamoeba histolytica (read-out: pIC50 (converted)) were 4.38 µM and 4.39 µM, respectively.
The matching figures for `Cc1ccc(C)c(/C=N/NC(=O)Cn2c([N+](=O)[O-])cnc2C)c1`: 2.58 µM and 2.58 µM.
The matching figures for `CC(=O)N1N=C(Cn2c([N+](=O)[O-])cnc2C)OC1c1ccccc1` (stereo not drawn): 9.82 µM and 9.84 µM.
With `CCOc1ccc(/C=N/NC(=O)Cn2c([N+](=O)[O-])cnc2C)cc1`, the values for the Activity result with HepG2 [1] and with HepG2 [2] were “Non-toxic” and “Dose-dependent effect”, respectively. Moreover, the IC50 is over 100 µM in the series with HepG2 [2], 1.65 µM with Entamoeba histolytica (read-out: IC50) and 1.65 µM in the series on Entamoeba histolytica (read-out: pIC50 (converted)). For the same molecule, in series [3] (HepG2 cells), the selectivity ratio was over 60.6. In series [4], the viability at 48 h, 100 µM was at least 68%. The viability at 48 h, 3.13 µM in series [5] is 98%. In series [6], the viability at 48 h is at least 88%.
Turning to `CC(=O)N1N=C(Cn2c([N+](=O)[O-])cnc2C)OC1c1ccc(C(C)C)cc1` (stereo not drawn), the values for the IC50 with Entamoeba histolytica (read-out: IC50) and with Entamoeba histolytica (read-out: pIC50 (converted)) were 4.88 µM and 4.89 µM, respectively.
The matching figures for `Cc1ncc([N+](=O)[O-])n1CC(=O)N/N=C/c1cccc(Cl)c1`: 3.82 µM and 3.83 µM.
On the same counts, the results for `Cc1ncc([N+](=O)[O-])n1CC(=O)N/N=C/c1ccccc1Cl` are 3.86 µM and 3.86 µM.
As to `COc1ccc(OC)c(/C=N/NC(=O)Cn2c([N+](=O)[O-])cnc2C)c1`, the IC50 in the series with Entamoeba histolytica (read-out: IC50) and in the series with Entamoeba histolytica (read-out: pIC50 (converted)) was 2.64 µM each time.
`Cc1ccc(/C=N/NC(=O)Cn2c([N+](=O)[O-])cnc2C)cc1`: the Activity entry with HepG2 [1] was “Non-toxic”; in the series with HepG2 [2], “Dose-dependent effect”. Besides, the IC50 with HepG2 [2] was over 100 µM; with Entamoeba histolytica (read-out: IC50), 0.96 µM; in the series on Entamoeba histolytica (read-out: pIC50 (converted)), 0.962 µM. Besides, in series [3] (HepG2 cells), the selectivity ratio was over 104. The viability at 48 h, 100 µM in series [4] is at least 68%. Also, in series [5], the viability at 48 h, 3.13 µM was 98%. In addition, the viability at 48 h in series [6] was at least 88%.
On to `COc1ccc(C2OC(Cn3c([N+](=O)[O-])cnc3C)=NN2C(C)=O)cc1` (stereo not drawn), for which the IC50 with Entamoeba histolytica (read-out: IC50) and in the series with Entamoeba histolytica (read-out: pIC50 (converted)) was 2.18 µM in each case.
Take `Cc1ncc([N+](=O)[O-])n1CC(=O)N/N=C/c1ccccc1`: the results for the IC50 with Entamoeba histolytica (read-out: IC50) and with Entamoeba histolytica (read-out: pIC50 (converted)) were 4.28 µM and 4.29 µM, respectively.
On the same counts, the results for `CC(=O)N1N=C(Cn2c([N+](=O)[O-])cnc2C)OC1c1cccc(Cl)c1` (stereo not drawn) are 6.32 µM and 6.32 µM.
The matching figures for `CC(=O)N1N=C(Cn2c([N+](=O)[O-])cnc2C)OC1c1ccc(C)cc1` (stereo not drawn): 2.48 µM and 2.48 µM.
The matching figures for `COc1ccc(OC)c(C2OC(Cn3c([N+](=O)[O-])cnc3C)=NN2C(C)=O)c1` (stereo not drawn): 4.62 µM and 4.62 µM.
For the molecule `CC(=O)N1N=C(Cn2c([N+](=O)[O-])cnc2C)OC1c1ccc(Cl)cc1` (stereo not drawn), the IC50 was 5.4 µM in the series on Entamoeba histolytica (read-out: IC50) and 5.41 µM in the series with Entamoeba histolytica (read-out: pIC50 (converted)).
For the molecule `COc1ccc(/C=N/NC(=O)Cn2c([N+](=O)[O-])cnc2C)cc1`, the values for the Activity result in the series on HepG2 [1] and in the series with HepG2 [2] were “Non-toxic” and “Dose-dependent effect”, respectively. Also, the results for the IC50 with HepG2 [2], in the series on Entamoeba histolytica (read-out: IC50) and in the series on Entamoeba histolytica (read-out: pIC50 (converted)) were over 100 µM, 0.81 µM and 0.811 µM, respectively. The selectivity ratio in series [3] (HepG2 cells) is over 123. The viability at 48 h, 100 µM in series [4] is at least 68%. Besides, the viability at 48 h, 3.13 µM in series [5] is 98%. Also, the viability at 48 h in series [6] was at least 88%.
Take `CCc1ccc(/C=N/NC(=O)Cn2c([N+](=O)[O-])cnc2C)cc1`: the Activity result in the series on HepG2 [1] was “Non-toxic”; in the series on HepG2 [2] it was “Dose-dependent effect”. Also, the IC50 in the series on HepG2 [2] was over 100 µM; in the series on Entamoeba histolytica (read-out: IC50) it was 1.32 µM; in the series on Entamoeba histolytica (read-out: pIC50 (converted)) it was 1.32 µM. Besides, the selectivity ratio in series [3] (HepG2 cells) was over 75.8. Moreover, the viability at 48 h, 100 µM in series [4] is at least 68%. The viability at 48 h, 3.13 µM in series [5] came to 98%. In addition, in series [6], the viability at 48 h is at least 88%.
Turning to `Cc1ncc([N+](=O)[O-])n1CCO` [METRONIDAZOLE], the Activity result in the series on HepG2 [1] is “Non-toxic”. Besides, in the series on HepG2 [2], the IC50 was over 100 µM and the Activity result is on record as “Dose-dependent effect”. Further, in series [3] (hepg2), the selectivity ratio was over 55.5. Besides, the viability at 48 h, 100 µM in series [4] was at least 68%. Moreover, in series [5], the viability at 48 h, 3.13 µM was determined as 98%. The viability at 48 h in series [6] is at least 88%.
With `COc1cc(C2OC(Cn3c([N+](=O)[O-])cnc3C)=NN2C(C)=O)cc(OC)c1OC` (stereo not drawn), the IC50 in the series on Entamoeba histolytica (read-out: IC50) and with Entamoeba histolytica (read-out: pIC50 (converted)) was 5.82 µM throughout.
For the molecule `Cc1ncc([N+](=O)[O-])n1CC(=O)N/N=C/c1ccc(C(C)C)cc1`, the IC50 in the series with Entamoeba histolytica (read-out: IC50) and in the series on Entamoeba histolytica (read-out: pIC50 (converted)) was 3.68 µM in each case.
Take `CCOc1ccc(C2OC(Cn3c([N+](=O)[O-])cnc3C)=NN2C(C)=O)cc1` (stereo not drawn): the IC50 in the series on Entamoeba histolytica (read-out: IC50) and in the series with Entamoeba histolytica (read-out: pIC50 (converted)) was 2.32 µM throughout.
Take `CC(=O)N1N=C(Cn2c([N+](=O)[O-])cnc2C)OC1c1ccccc1Cl` (stereo not drawn): the values for the IC50 in the series with Entamoeba histolytica (read-out: IC50) and in the series with Entamoeba histolytica (read-out: pIC50 (converted)) were 6.84 µM and 6.85 µM, respectively.
The matching figures for `COc1cc(/C=N/NC(=O)Cn2c([N+](=O)[O-])cnc2C)cc(OC)c1OC`: 4.12 µM and 4.12 µM.
